Laboratory results: patent US9149465B2, “Isoxazolines as inhibitors of fatty acid amide hydrolase” (Infinity Pharmaceuticals, Inc., priority 2009, dated 2015)

Target: T1, human FAAH (Homo sapiens, UniProt O00519)
T1 construct: host or cells: COS-7 cells, transient transfection; 13,000 g membrane fraction solubilised in 1% Triton X-100
T1 sequence (O00519 1-579): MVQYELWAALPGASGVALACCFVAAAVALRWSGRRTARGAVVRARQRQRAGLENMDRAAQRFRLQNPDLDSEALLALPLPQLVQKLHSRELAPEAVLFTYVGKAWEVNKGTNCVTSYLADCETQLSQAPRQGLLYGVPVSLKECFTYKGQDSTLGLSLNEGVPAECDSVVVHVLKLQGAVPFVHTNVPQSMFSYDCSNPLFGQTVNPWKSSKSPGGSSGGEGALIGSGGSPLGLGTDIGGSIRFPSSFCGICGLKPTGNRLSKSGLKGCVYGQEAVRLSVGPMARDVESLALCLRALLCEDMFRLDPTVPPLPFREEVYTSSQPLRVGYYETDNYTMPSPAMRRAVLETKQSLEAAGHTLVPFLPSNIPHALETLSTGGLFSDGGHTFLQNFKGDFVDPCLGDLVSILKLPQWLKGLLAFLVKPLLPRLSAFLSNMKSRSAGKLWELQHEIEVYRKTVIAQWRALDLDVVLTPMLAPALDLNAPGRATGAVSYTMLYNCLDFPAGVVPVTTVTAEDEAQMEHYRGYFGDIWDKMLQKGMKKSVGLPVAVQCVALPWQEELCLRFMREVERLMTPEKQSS
Assay: Inhibition of human FAAH (AMC arachidonoyl amide fluorescence assay)
Assay type: biochemical
Settings: inhibitor preincubated 30 minutes at room temperature; 20 μM AMC arachidonoyl amide; 4 hours; read-out: Activity (Ki, inhibitors of human FAAH)
Experimental: Human FAAH Preparation: COS-7 cells were split the day before, 1:5 into 150 mm x […] cell culture dishes (Corning Inc., Cat. No. 430599). Transient transfection took place at 30-40% confluency according to FuGENE 6 Transfection Reagent (Roche, Cat. No. 11814 443 001).
Transfection Procedure: The FuGENE transfection 6 reagent (45 uL) was added to 1410 μL of media (DMEM, serum free without pen/strep) in a 15 mL conical tube and incubated at room temp for 5 minutes, followed by the addition of FAAH plasmid DNA (15 μg) (OriGene Cat. No. TC119221, Genbank Accession No. NM_001441.1, 0.67 ug/uL) and a further incubation of 15 minutes at room temperature. The resulting solution was added into one dish of 30-40% confluent COS-7 cells in a drop-wise manner. The COS-7 cell dish was subsequently incubated for 48 hours. The cells are then harvested.
Harvest procedure: Media was aspirated from the dishes and the cells rinsed with 10 mL PBS. The PBS was removed and 3 mL of PBS added to the dish. The dish was scraped to resuspend the cells, and the subsequent cell suspension collected into a 15 mL conical tube. The cells were pelleted by centrifugation at 1200 rpm for 5 minutes in a bench top centrifuge. PBS was removed and the cell pellet snap frozen in liquid nitrogen and stored at −80° C.
COS-7 cells —FAAH purification: • (1) Fractionation: Frozen cell pellets from transient transfections were thawed on ice and resuspended in 12.5 mM Hepes pH 8.0, 100 mM NaCl, 1 mM EDTA (10 mL/0.2 g cell pellet). The pellets were dounce homogenized and then sonicated to produce cell extract. The cell extract was subsequently centrifuged at 1000 g to remove cellular debris. The pellet was discarded and the supernatant centrifuged at 13,000 g for 20 minutes. The pellet contained membrane bound FAAH. The supernatant was discarded and the pellet resolubilized. • (2) Re-solubilization: The fraction of interest, (13,000 g, membrane fraction) was re-suspended in 2.3 mL re-suspension buffer (20 mM Hepes pH 7.8, 10% v/v Glycerol, 1 mM EDTA, 1% Triton X-100) and the sample incubated on ice for 1 hour and then centrifuged to remove any particulate matter. The supernatant containing solubilized human FAAH was aliquoted and snap frozen in liquid nitrogen and stored at −80° C. until use. • (3) Characterization: Protein Concentration determined by Bradford assay. • SDS gel and Western blot to confirm presence of FAAH • FAAH activity assay • Km determination-96-well assay • Linear dependence—96-well assay • Standard compound Ki determination—384-well assay
Human FAAH assay; Experimental Protocol: A 0.1 mg/mL Human FAAH solution was made up in FAAH reaction buffer, and 24 ul pipeted into a 384 well plate. To this was added 1 μL of a 3 fold serially diluted inhibitor from a DMSO stock solution. The FAAH solution and inhibitor were incubated for 30 minutes at room temperature. The FAAH reaction was initiated by the addition of 25 μL of 40 μM AMC Arachidonoyl Amide in FAAH reaction buffer, yielding a final reaction human FAAH preparation concentration of 0.05 mg/ml and AMC-Arachidonoyl substrate concentration of 20 μM, reaction volume 50 μL. The reaction was allowed to proceed for 4 hours at room temperature. The reaction was stopped by the addition of 25 μL 12 μM a-ketoheterocycle (Cayman Chemicals, catalogue #10435). The microtiter plate was read in the envision plate reader.
The raw fluorescence was plotted on the y axis and the inhibitor concentration on the x axis to give a dose response inhibition curve. The data was fitted to a single site competitive inhibition equation, fixing the Km for the human enzyme to 12 μM and 9 μM respectively.

Row | Ki [nM] | SMILES
1 | ≤ 100 | O=C(O)CNC(=O)c1ccc(OC2=NOC(c3ccc(OC(F)(F)F)cc3)C2)cn1 (racemic) [I-106]
2 | ≤ 100 | CNC(=O)c1ccc(OC2=NOC(c3ccc(OC(F)(F)F)cc3)C2)cn1 (racemic) [I-107]
3 | 100 to 1000 | CN(C)C(=O)c1ccc(OC2=NOC(c3ccc(OC(F)(F)F)cc3)C2)cn1 (racemic) [I-108]
4 | ≤ 100 | O=C(NCCO)c1ccc(OC2=NOC(c3ccc(OC(F)(F)F)cc3)C2)cn1 (racemic) [I-109]
5 | ≤ 100 | O=C(O)c1ccc(OC2=NOC(c3ccc(Oc4ccccc4)cc3)C2)cn1 (racemic) [I-110]
6 | ≤ 100 | CN(C)C(=O)c1ccc(OC2=NOC(c3ccc(Oc4ccccc4)cc3)C2)cn1 (racemic) [I-111]
7 | ≤ 100 | FC(F)(F)Oc1ccc(C2CC(Oc3cncnc3)=NO2)cc1 (racemic) [I-112]
8 | ≤ 100 | CC1(c2ccc(OC(F)(F)F)cc2)CC(Oc2ccc(C(=O)O)nc2)=NO1 (racemic) [I-113]
9 | ≤ 100 | CNC(=O)c1ccc(OC2=NOC(C)(c3ccc(OC(F)(F)F)cc3)C2)cn1 (racemic) [I-114]
10 | ≤ 100 | CCNC(=O)c1ccc(OC2=NOC(C)(c3ccc(OC(F)(F)F)cc3)C2)cn1 (racemic) [I-115]
11 | 100 to 1000 | CC1(c2ccc(OC(F)(F)F)cc2)CC(Oc2ccc(C(=O)NCC(F)(F)F)nc2)=NO1 (racemic) [I-116]
12 | ≤ 100 | CC1(c2ccc(OC(F)(F)F)cc2)CC(Oc2ccc(C(=O)NO)nc2)=NO1 (racemic) [I-117]
13 | 100 to 1000 | NC(=O)CNC(=O)c1ccc(OC2=NOC(c3ccc(OC(F)(F)F)cc3)C2)cn1 (racemic) [I-118]
14 | ≤ 100 | Fc1cccc(-c2ccc(C3CC(Oc4cncnc4)=NO3)c(F)c2)c1 (racemic) [I-119]
15 | ≤ 100 | Fc1cc([C@H]2CC(Br)=NO2)ccc1OC(F)(F)F (racemic) [I-120]
16 | ≤ 100 | Fc1cc([C@H]2CC(Oc3cncnc3)=NO2)ccc1OC(F)(F)F (racemic) [I-121]
17 | ≤ 100 | COC(=O)c1ccc(OC2=NO[C@@H](c3ccc(OC(F)(F)F)c(F)c3)C2)cn1 (racemic) [I-122]
18 | ≤ 100 | O=C(O)c1ccc(OC2=NO[C@@H](c3ccc(OC(F)(F)F)c(F)c3)C2)cn1 (racemic) [I-123]
19 | ≤ 100 | FC(F)(F)Oc1ccc([C@H]2CC(Br)=NO2)cc1Cl (racemic) [I-124]

Row | Ki [nM] | SMILES
20 | ≤ 100 | FC(F)(F)Oc1ccc(C2CC(Oc3cncnc3)=NO2)cc1Cl (racemic) [I-125]
21 | ≤ 100 | FC1(F)Oc2ccc(C3CC(Br)=NO3)cc2O1 (racemic) [I-126]
22 | 100 to 1000 | FC1(F)Oc2ccc([C@H]3CC(Oc4cncnc4)=NO3)cc2O1 (racemic) [I-127]
23 | ≤ 100 | O=C(O)CCc1ccc(OC2=NOC(c3ccc(OC(F)(F)F)cc3)C2)cn1 (racemic) [I-128]
24 | ≤ 100 | CC1(c2ccc(OC(F)(F)F)cc2)CC(Oc2cncnc2)=NO1 (racemic) [I-129]
25 | 100 to 1000 | FC(F)(F)C1(c2ccc(Oc3ccccc3)cc2)CC(Br)=NO1 (racemic) [I-130]
26 | ≤ 100 | FC(F)(F)C1(c2ccc(Oc3ccccc3)cc2)CC(Oc2cncnc2)=NO1 (racemic) [I-131]
27 | 100 to 1000 | CSc1ncc(OC2=NOC(c3ccc(OC(F)(F)F)cc3)C2)cn1 (racemic) [I-132]
28 | ≤ 100 | CS(=O)(=O)c1ncc(OC2=NOC(c3ccc(OC(F)(F)F)cc3)C2)cn1 (racemic) [I-133]
29 | ≤ 100 | CSc1ccc(OC2=NOC(c3ccc(OC(F)(F)F)cc3)C2)cn1 (racemic) [I-134]
30 | ≤ 100 | CS(=O)(=O)c1ccc(OC2=NOC(c3ccc(OC(F)(F)F)cc3)C2)cn1 (racemic) [I-135]
31 | 100 to 1000 | COc1ncc(OC2=NOC(c3ccc(OC(F)(F)F)cc3)C2)cc1F (racemic) [I-136]
32 | ≤ 100 | CCCCOc1ccc([C@H]2CC(Oc3ccc(C(=O)OC)nc3)=NO2)cc1 (racemic) [I-137]
33 | ≤ 100 | CCCCOc1ccc([C@H]2CC(Oc3ccc(C(=O)O)nc3)=NO2)cc1 (racemic) [I-138]
34 | ≤ 100 | CCCCOc1ccc([C@H]2CC(Oc3cncnc3)=NO2)cc1 (racemic) [I-139]
35 | ≤ 100 | CC(C)Oc1ccc([C@H]2CC(Oc3ccc(C(=O)O)nc3)=NO2)cc1 (racemic) [I-140]
36 | ≤ 100 | CC(C)Oc1ccc([C@H]2CC(Oc3cncnc3)=NO2)cc1 (racemic) [I-141]
37 | ≤ 100 | C#CCOc1ccc([C@H]2CC(Br)=NO2)cc1 (racemic) [I-142]
38 | 100 to 1000 | C#CCOc1ccc([C@H]2CC(Oc3cncnc3)=NO2)cc1 (racemic) [I-143]

Row | Ki [nM] | SMILES
39 | ≤ 100 | C#CCOc1ccc([C@H]2CC(Oc3ccc(C(=O)OC)nc3)=NO2)cc1 (racemic) [I-144]
40 | ≤ 100 | C#CCOc1ccc([C@H]2CC(Oc3ccc(C(=O)O)nc3)=NO2)cc1 (racemic) [I-145]
41 | 100 to 1000 | O=C(O)c1cccc(OC2=NOC(c3ccc(Oc4ccccc4)cc3)C2)c1 (racemic) [I-146]
42 | ≤ 100 | O=C(O)c1ccc(OC2=NOC(c3ccc(Oc4ccccc4)cc3)C2)cc1 (racemic) [I-147]
43 | ≤ 100 | BrC1=NO[C@@H](c2ccc(Br)cc2)C1 (racemic) [I-148]
44 | ≤ 100 | COC(=O)c1ccc(OC2=NO[C@@H](c3ccc(Br)cc3)C2)cn1 (racemic) [I-149]
45 | ≤ 100 | O=C(O)c1ccc(OC2=NOC(c3ccc(Br)cc3)C2)cn1 (racemic) [I-150]
46 | ≤ 100 | COC(=O)c1cc(OC2=NOC(c3ccc(OC(F)(F)F)cc3)C2)ccn1 (racemic) [I-151]
47 | ≤ 100 | O=C(O)c1cc(OC2=NOC(c3ccc(OC(F)(F)F)cc3)C2)ccn1 (racemic) [I-152]
48 | 100 to 1000 | Clc1ccc([C@H]2CC(Oc3cncnc3)=NO2)cc1 (racemic) [I-153]
49 | ≤ 100 | CC1(c2ccc(OC(F)(F)F)cc2)CC(Oc2ccc(-c3ccoc3)nc2)=NO1 (racemic) [I-154]
50 | ≤ 100 | Cc1nnc(-c2ccc(OC3=NOC(c4ccc(Oc5ccccc5)cc4)C3)cn2)o1 (racemic) [I-155]
51 | ≤ 100 | Cc1nnc(-c2ccc(OC3=NOC(C)(c4ccc(OC(F)(F)F)cc4)C3)cn2)o1 (racemic) [I-156]
52 | ≤ 100 | Cc1nnc(-c2ccc(OC3=NOC(c4ccc(OC(F)(F)F)cc4)C3)cn2)o1 (racemic) [I-157]
53 | ≤ 100 | Cc1nnc(-c2ccc(OC3=NOC(C)(c4ccc(OC(F)(F)F)cc4)C3)cn2)s1 (racemic) [I-158]
54 | ≤ 100 | Cc1nnc(-c2ccc(OC3=NOC(c4ccc(Oc5ccccc5)cc4)C3)cc2)o1 (racemic) [I-159]
55 | ≤ 100 | Cc1nnc(-c2cccc(OC3=NOC(c4ccc(Oc5ccccc5)cc4)C3)c2)o1 (racemic) [I-160]
56 | ≤ 100 | FC(F)(F)Oc1ccc(C2CC(Oc3ccc(-c4nccs4)nc3)=NO2)cc1 (racemic) [I-162]
